Assay results: US9861575B2, “Vitamin-containing nutrition infusion for administration through peripheral vein” (AJINOMOTO CO., INC., priority 2010, dated 2018)
Counter-ions that a name gives are not always drawn.

How the values were obtained:
[1] = Test Example 6: stability of respective vitamins on storage of infusion formulation of Example 11; type: physicochemical; details: in infusion formulation of Example 11, percentage based on the mixed amount; for residual rate (content), storage for 3 months / residual rate (content), storage for 1 month: 40° C. and 75% RH
Excerpt: In addition, the content is expressed as a percentage based on the mixed amount. From the results, it is considered that the infusion formulation of the present invention remains stable even when stored for a long time.

[2] = Test Example 7: stability of mixed solution of Example 11; type: physicochemical; details: mixed solution of Example 11, room temperature, light-shielded; value immediately after mixing = 100%
Procedure: Regarding the infusion formulations prepared in Example 11, the partition portions were opened to thoroughly mix the sugar solution with the amino acid solution at room temperature, and then the mixed solution was sampled after 0 hours, 24 hours, and 48 hours to measure the content of the respective vitamins and N-acetyl cysteine. In addition, the mixed solution was stored in a light-shielded environment. The value measured immediately after mixing was taken as 100%, and the content at each point in time of measurement is expressed as a percentage. All of the respective components remained stable until 48 hours elapsed after mixing.

| residual rate (content), storage for 3 months [1] [%] | residual rate (content) immediately after sterilization [1] [%] | content after 24 hours [2] [%] | content after 48 hours [2] [%] | residual rate (content), storage for 1 month [1] [%] | Compound |
| --- | --- | --- | --- | --- | --- |
| 89.7 | 95.8 | 96.4 | 96.2 | 96.5 | Nc1nc2ncc(CNc3ccc(C(=O)N[C@@H](CCC(=O)O)C(=O)O)cc3)nc2c(=O)[nH]1 [Folic acid] |
| – | – | 98.3 | 97.5 | – | CC(=O)N[C@@H](CS)C(=O)O [N-acetyl cysteine] |
| 99.6 | 100.9 | 96.6 | 97.2 | 101.5 | NC(=O)c1cccnc1 [Nicotinamide] |
| 96.8 | 97.8 | 100.0 | 100.2 | 97.6 | CC(C)(CO)[C@@H](O)C(=O)NCCCO [Panthenol] |
| 83.5 | 93.3 | 99.4 | 94.1 | 90.6 | Cc1ncc(C[n+]2csc(CCO)c2C)c(N)n1 [Vitamin B1, Thiamine hydrochloride] |
| 92.6 | 94.7 | – | 99.8 | 94.3 | Cc1cc2nc3c(=O)[nH]c(=O)nc-3n(C[C@H](O)[C@H](O)[C@H](O)COP(=O)([O-])O)c2cc1C.[Na+] [Vitamin B2, Riboflavin sodium phosphate] |
| 99.7 | 96.1 | 97.1 | 92.2 | 97.6 | O=C1O[C@H]([C@@H](O)CO)C(O)=C1O [Vitamin C, Ascorbic acid] |
| 91.2 | 86.3 | 96.0 | 97.9 | 89.7 | Cyanocobalamin [Vitamin B12] |

| Compound | residual rate (content), storage for 3 months [1] [%] | residual rate (content) immediately after sterilization [1] [%] | content after 24 hours [2] [%] | content after 48 hours [2] [%] | residual rate (content), storage for 1 month [1] [%] |
| --- | --- | --- | --- | --- | --- |
| O=C(O)CCCC[C@@H]1SC[C@@H]2NC(=O)N[C@@H]21 [Biotin] | 91.4 | 93.6 | 97.9 | 96.7 | – |
| Cc1ncc(CO)c(CO)c1O.Cl [Vitamin B6, Pyridoxine hydrochloride] | 97.3 | 97.1 | 100.6 | 99.9 | 96.7 |
